{
  "source": "PubChem BioAssay AID1259407",
  "about": "(Chemical Carcinogenesis Research Information System (CCRIS), 2018)",
  "test_system": "CCRIS mutagenicity, Ames/micronucleus/aberration tests",
  "experiment": "CCRIS mutagenicity studies",
  "key": {"[1]": {"details": "Test System: AMES SALMONELLA TYPHIMURIUM, Strain/Indicator: TA100, Metabolic Activation: NONE, Method: STANDARD PLATE"}, "[2]": {"details": "Test System: AMES SALMONELLA TYPHIMURIUM, Strain/Indicator: TA98, Metabolic Activation: NONE, Method: STANDARD PLATE"}, "[3]": {"details": "Test System: AMES SALMONELLA TYPHIMURIUM, Strain/Indicator: TA1535, Metabolic Activation: NONE, Method: STANDARD PLATE"}, "[4]": {"details": "Test System: AMES SALMONELLA TYPHIMURIUM, Strain/Indicator: TA98, Metabolic Activation: RAT, LIVER, S-9, AROCLOR 1254, Method: STANDARD PLATE"}, "[5]": {"details": "Test System: AMES SALMONELLA TYPHIMURIUM, Strain/Indicator: TA100, Metabolic Activation: RAT, LIVER, S-9, AROCLOR 1254, Method: STANDARD PLATE"}, "[6]": {"details": "Test System: AMES SALMONELLA TYPHIMURIUM, Strain/Indicator: TA1535, Metabolic Activation: RAT, LIVER, S-9, AROCLOR 1254, Method: STANDARD PLATE"}, "[7]": {"details": "Test System: AMES SALMONELLA TYPHIMURIUM, Strain/Indicator: TA1537, Metabolic Activation: NONE, Method: STANDARD PLATE"}, "[8]": {"details": "Test System: AMES SALMONELLA TYPHIMURIUM, Strain/Indicator: TA1537, Metabolic Activation: RAT, LIVER, S-9, AROCLOR 1254, Method: STANDARD PLATE"}},
  "note": "The source made the active and inactive calls. No rule for the calls is given here.",
  "data": [
    {"smiles": "O=[N+]([O-])c1ccc(-c2ccccc2)cc1", "values": [
      {"measurement": "mutagenic call", "setting": "Test System: AMES SALMONELLA TYPHIMURIUM, Strain/Indicator: TA98(1,8-DNP6), Metabolic Activation: NONE", "value": "inactive; negative"},
      {"measurement": "mutagenic call", "setting": "Test System: AMES SALMONELLA TYPHIMURIUM, Strain/Indicator: TA98(1,8-DNP6), Metabolic Activation: NONE, Method: STANDARD PLATE", "value": "active; positive"},
      {"measurement": "mutagenic call", "setting": "Test System: AMES SALMONELLA TYPHIMURIUM, Strain/Indicator: TA98(1,8-DNP6), Metabolic Activation: RAT, LIVER, S-9, AROCLOR 1254", "value": "inactive; negative"},
      {"measurement": "mutagenic call", "setting": "Test System: AMES SALMONELLA TYPHIMURIUM, Strain/Indicator: TA98(NR), Metabolic Activation: NONE", "value": "inactive; negative"},
      {"measurement": "mutagenic call", "setting": "Test System: AMES SALMONELLA TYPHIMURIUM, Strain/Indicator: TA98(NR), Metabolic Activation: NONE, Method: STANDARD PLATE", "value": "inactive; negative"},
      {"measurement": "mutagenic call", "setting": "Test System: AMES SALMONELLA TYPHIMURIUM, Strain/Indicator: TA98(NR), Metabolic Activation: RAT, LIVER, S-9, AROCLOR 1254", "value": "inactive; negative"},
      {"measurement": "mutagenic call", "setting": "Test System: AMES SALMONELLA TYPHIMURIUM, Strain/Indicator: TA98, Metabolic Activation: NONE", "value": "inactive; negative"},
      {"measurement": "mutagenic call", "setting": "Test System: AMES SALMONELLA TYPHIMURIUM, Strain/Indicator: TA98, Metabolic Activation: NONE, Method: PREINCUBATION", "value": "active; positive"},
      {"measurement": "mutagenic call", "setting": "Test System: AMES SALMONELLA TYPHIMURIUM, Strain/Indicator: TA98, Metabolic Activation: RAT, LIVER, S-9, AROCLOR 1254", "value": "inactive; negative"},
      {"measurement": "mutagenic call", "setting": "Test System: AMES SALMONELLA TYPHIMURIUM, Strain/Indicator: TA98, Metabolic Activation: RAT, LIVER, S-9, PCB (10%), Method: PREINCUBATION", "value": "active; positive"},
      {"measurement": "mutagenic call", "setting": "Test System: AMES SALMONELLA TYPHIMURIUM, Strain/Indicator: TA98, Metabolic Activation: RAT, LIVER, S-9, PCB, Method: PREINCUBATION", "value": "active; positive"},
      {"measurement": "mutagenic call", "setting": "Test System: AMES SALMONELLA TYPHIMURIUM, Strain/Indicator: TA98, Metabolic Activation: RAT, LIVER, S-100 (CYTOSOL), Method: PREINCUBATION", "value": "active; positive"},
      {"measurement": "mutagenic call", "setting": "Test System: AMES SALMONELLA TYPHIMURIUM, Strain/Indicator: TA98, Metabolic Activation: RAT, LIVER, S-100 (MICROSOMES), Method: PREINCUBATION", "value": "active; positive"},
      {"measurement": "mutagenic call", "setting": "Test System: AMES SALMONELLA TYPHIMURIUM, Strain/Indicator: TA98, Metabolic Activation: S-9, Method: STANDARD PLATE", "value": "active; positive"},
      {"measurement": "mutagenic call", "setting": "Test System: AMES SALMONELLA TYPHIMURIUM, Strain/Indicator: TA100(NR), Metabolic Activation: NONE", "value": "inactive; negative"},
      {"measurement": "mutagenic call", "setting": "Test System: AMES SALMONELLA TYPHIMURIUM, Strain/Indicator: TA100(NR), Metabolic Activation: RAT, LIVER, S-9, AROCLOR 1254", "value": "inactive; negative"},
      {"measurement": "mutagenic call", "setting": "Test System: AMES SALMONELLA TYPHIMURIUM, Strain/Indicator: TA100, Metabolic Activation: NONE", "value": "inactive; negative"},
      {"measurement": "mutagenic call", "setting": "[1]", "value": "active; positive"},
      {"measurement": "mutagenic call", "setting": "Test System: AMES SALMONELLA TYPHIMURIUM, Strain/Indicator: TA100, Metabolic Activation: RAT, LIVER, S-9, AROCLOR 1254", "value": "inactive; negative"},
      {"measurement": "mutagenic call", "setting": "Test System: AMES SALMONELLA TYPHIMURIUM, Strain/Indicator: TA100, Metabolic Activation: S-9, Method: STANDARD PLATE", "value": "active; positive"},
      {"measurement": "mutagenic call", "setting": "Test System: AMES SALMONELLA TYPHIMURIUM, Strain/Indicator: TA104, Metabolic Activation: NONE", "value": "inactive; negative"},
      {"measurement": "mutagenic call", "setting": "Test System: AMES SALMONELLA TYPHIMURIUM, Strain/Indicator: TA104, Metabolic Activation: RAT, LIVER, S-9, AROCLOR 1254", "value": "inactive; negative"},
      {"measurement": "mutagenic call", "setting": "Test System: CHINESE HAMSTER OVARY, Strain/Indicator: CHO-K1-BH4 (HGPRT), Metabolic Activation: NONE, Method: SUSPENSION/PLATE", "value": "inactive; negative"},
      {"measurement": "mutagenic call", "setting": "Test System: CHINESE HAMSTER OVARY, Strain/Indicator: CHO-K1-BH4 (HGPRT), Metabolic Activation: RAT, LIVER, S-9, AROCLOR, Method: SUSPENSION/PLATE", "value": "inactive; negative"},
      {"measurement": "mutagenic call", "setting": "Test System: UDS RAT HEPATOCYTES, Strain/Indicator: THY INCORP, Metabolic Activation: NONE, Method: AUTORADIOGRAPHY (SERUM-FREE MEDIA)", "value": "active; positive"}
    ]},
    {"smiles": "O=C1c2ccccc2-c2c1c1ccccc1c(=O)n2CCNCCO", "values": [
      {"measurement": "mutagenic call", "setting": "Test System: AMES SALMONELLA TYPHIMURIUM, Strain/Indicator: TA97, Metabolic Activation: NONE, Method: STANDARD PLATE", "value": "inactive; negative"},
      {"measurement": "mutagenic call", "setting": "Test System: AMES SALMONELLA TYPHIMURIUM, Strain/Indicator: TA97, Metabolic Activation: RAT, LIVER, S-9, PHENOBARBITAL AND ALPHA-NAPHTHOFLAVONE, Method: STANDARD PLATE", "value": "inactive; negative"},
      {"measurement": "mutagenic call", "setting": "[2]", "value": "inactive; negative"},
      {"measurement": "mutagenic call", "setting": "Test System: AMES SALMONELLA TYPHIMURIUM, Strain/Indicator: TA98, Metabolic Activation: RAT, LIVER, S-9, PHENOBARBITAL AND ALPHA-NAPHTHOFLAVONE, Method: STANDARD PLATE", "value": "inactive; negative"},
      {"measurement": "mutagenic call", "setting": "[1]", "value": "inactive; negative"},
      {"measurement": "mutagenic call", "setting": "Test System: AMES SALMONELLA TYPHIMURIUM, Strain/Indicator: TA100, Metabolic Activation: RAT, LIVER, S-9, PHENOBARBITAL AND ALPHA-NAPHTHOFLAVONE, Method: STANDARD PLATE", "value": "inactive; negative"},
      {"measurement": "mutagenic call", "setting": "[3]", "value": "inactive; negative"},
      {"measurement": "mutagenic call", "setting": "Test System: AMES SALMONELLA TYPHIMURIUM, Strain/Indicator: TA1535, Metabolic Activation: RAT, LIVER, S-9, PHENOBARBITAL AND ALPHA-NAPHTHOFLAVONE, Method: STANDARD PLATE", "value": "inactive; negative"}
    ]},
    {"smiles": "Cn1c2ccccc2c2ccc([N+](=O)[O-])cc21", "values": [
      {"measurement": "mutagenic call", "setting": "[2]", "value": "active; positive"},
      {"measurement": "mutagenic call", "setting": "Test System: AMES SALMONELLA TYPHIMURIUM, Strain/Indicator: TA98, Metabolic Activation: RAT LIVER S-9, AROCLOR 1254, Method: STANDARD PLATE", "value": "active; positive"},
      {"measurement": "mutagenic call", "setting": "[1]", "value": "active; positive"},
      {"measurement": "mutagenic call", "setting": "Test System: AMES SALMONELLA TYPHIMURIUM, Strain/Indicator: TA100, Metabolic Activation: RAT LIVER S-9, AROCLOR 1254, Method: STANDARD PLATE", "value": "active; positive"}
    ]},
    {"smiles": "CCC(=O)OCC(=O)[C@@]1(OC(=O)CC)[C@H](C)C[C@H]2[C@H]3[C@H]([C@@H](O)C[C@@]21C)[C@@]1(C)C=CC(=O)C=C1C[C@H]3Cl", "values": [
      {"measurement": "mutagenic call", "setting": "[2]", "value": "inactive; negative"},
      {"measurement": "mutagenic call", "setting": "[4]", "value": "inactive; negative"},
      {"measurement": "mutagenic call", "setting": "[1]", "value": "inactive; negative"},
      {"measurement": "mutagenic call", "setting": "[5]", "value": "inactive; negative"},
      {"measurement": "mutagenic call", "setting": "[3]", "value": "inactive; negative"},
      {"measurement": "mutagenic call", "setting": "[6]", "value": "inactive; negative"},
      {"measurement": "mutagenic call", "setting": "[7]", "value": "inactive; negative"},
      {"measurement": "mutagenic call", "setting": "[8]", "value": "inactive; negative"},
      {"measurement": "mutagenic call", "setting": "Test System: E. COLI, Strain/Indicator: WP2, Metabolic Activation: NONE, Method: STANDARD PLATE", "value": "inactive; negative"},
      {"measurement": "mutagenic call", "setting": "Test System: E. COLI, Strain/Indicator: WP2, Metabolic Activation: RAT, LIVER, S-9, AROCLOR 1254, Method: STANDARD PLATE", "value": "inactive; negative"},
      {"measurement": "mutagenic call", "setting": "Test System: E. COLI, Strain/Indicator: WP2 UVRA, Metabolic Activation: NONE, Method: STANDARD PLATE", "value": "inactive; negative"},
      {"measurement": "mutagenic call", "setting": "Test System: E. COLI, Strain/Indicator: WP2 UVRA, Metabolic Activation: RAT, LIVER, S-9, AROCLOR 1254, Method: STANDARD PLATE", "value": "inactive; negative"}
    ]},
    {"smiles": "O=S(=O)(Nc1ccc(Cl)c(Cl)c1)c1cccc2cccnc12", "values": [
      {"measurement": "mutagenic call", "setting": "[2]", "value": "inactive; negative"},
      {"measurement": "mutagenic call", "setting": "[4]", "value": "inactive; negative"},
      {"measurement": "mutagenic call", "setting": "[1]", "value": "inactive; negative"},
      {"measurement": "mutagenic call", "setting": "[5]", "value": "inactive; negative"},
      {"measurement": "mutagenic call", "setting": "[3]", "value": "inactive; negative"},
      {"measurement": "mutagenic call", "setting": "[6]", "value": "inactive; negative"},
      {"measurement": "mutagenic call", "setting": "[7]", "value": "inactive; negative"},
      {"measurement": "mutagenic call", "setting": "[8]", "value": "inactive; negative"}
    ]}
  ]
}
